Data from patent publication US6147076A, “Analogues of N-acetylardeemin, method of preparation and uses thereof” (priority 1996, dated 2000).
Values joined by “and” are separate entries in the source; they are usually repeats but may differ in a detail not shown here. Equal entries are not always repeated. Where two headings read alike, the source gives them in different places.

How the values were obtained:
DC-3F/ADX cells = assay: Cytotoxicity toward DC-3F/ADX cells; assay type: cell-based, hamster
CCRF-CEM/VM-1 cells = assay: Cytotoxicity toward VM-26-resistant CCRF-CEM/VM-1 cells (mutated Topo II gene); assay type: cell-based, human
CCRF-CEM cells [1] = assay: Intracellular accumulation of [3H]vinblastine in CCRF-CEM cells; assay type: cell-based, human; settings: 30 μM
Description: (§1) *Cells were preloaded with [^3 H]
(§2) times (or without wash) with 100 ml cold medium to remove extracellular
(§3) with or without a reverse prenyl compound or an MDRreversing agent. Cells
(§4) were then separated from radioactive medium by microfuge oillayer method.
(§5) Extracellular space counts carried down # by cells (^3 HInulin space
(§6) were subtracted from the total radioactive counts.

CCRF-CEM/VLB-100 cells = assay: Intracellular accumulation of [3H]vinblastine in CCRF-CEM/VLB-100 cells; assay type: cell-based, human; settings: 30 μM
Description: as §1, §2, §3, §4, §5, §6

DC-3F/ADII cells [2] = system: DC-3F/ADII cells
P388/0 tumor [3] = settings: DMNAA 50.0 mg/kg
Description: (§7) ^a Male BDF mice were inoculated with P388/O, 10^6 cell/mouse,
(§8) i.p. on day 0; and started treatment on day 1, i.p., Q5Dx5, besides mice
(§9) with dose VBL 3.0 and VBL 3.0 mg/kg + DMNAA 50 mg/kg, only one injection
(§10) i.p., on day 1. There were five mice at every dose and ten in the control

DC-3F/ADII cells [4] = assay: cells; settings: Mesocricetus auratus, DC3F
CCRF-CEM/VBL100 cells [5] = assay: cells; settings: Homo sapiens, read-out: IC50 of reversing agent, Table 6B, CCRF-CEM/VBL
DC-3F hamster lung cells [6] = assay: Cytotoxicity toward DC-3F hamster lung cells
CCRF-CEM cells [7] = assay: Cytotoxicity / growth inhibition of CCRF-CEM leukemic cells; settings: Homo sapiens
P388/DX leukemic cells = assay: Drug combination of adriamycin and 5-N-acetyl-ardeemin against P388/DX cell growth (XTT); assay type: cell-based; settings: drug alone
From the text: | microplate, 25,000 cell/well, N = 2.

P388/0 = assay: Survival time evaluation for BDF mice bearing P388/0; settings: for survival time: individual mice
From the text: ^a Male BDF mice were inoculated with p388/0, 10E6 cells/mouse, I.P.

P388/DX = assay: Survival time evaluation for BDF mice bearing P388/DX; settings: for survival time: individual mice
P388 leukemic cells = assay: Drug combination of adriamycin and 5-N-acetyl-ardeemin against P388 cell growth (XTT); settings: Mus musculus, P388, drug alone
From the text: microplate, 15,000 cell/well, N = 2. Platting cells on day 1, add drugs o
day 2 and XTT assay on day 5.

P388/O tumor = assay: Combination therapy of adriamycin & 5-N-acetyl-ardeemin or verapamil in B6D2F1 mice bearing P388/O tumor; settings: for Days survived: individual mice 1-5, listed as Adr;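 for all read-outs here: male BDF mice carrying P388/O given intraperitoneally, dosing begun on day 1 on a QDX4, QWX2 schedule, five animals per dose level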
From the text: ^a Male BDF mice were inoculated P388/O, 10^6 cells/mouse, i.p. a
starting day 1, QDX4, QWX2.

P388/DX tumor = assay: Combination therapy of adriamycin & 5-N-acetyl-ardeemin or verapamil in B6D2F1 mice bearing P388/DX tumor; settings: for Days survived: individual mice 1-5, listed as Adr.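 For all read-outs here: male BDF mice implanted intraperitoneally with P388/DX cells, 10^6 per mouse, dosed from day 1 on a QDX4, QWX2 schedule, five mice per dose group.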
From the text: ^a Male BDF mice were inoculated P388/DX, 10^6 cells/mouse, i.p.
starting day 1, QDX4, QWX2. There were five mice at every dose and ten

P388/0 tumor [8] = assay: Combination therapy of adriamycin, vinblastine and des-Me-N-acetyl-ardeemin in B6D2F1 mice bearing P388/0 tumor; settings: for Days survived: individual mice 1-5, listed as Adr.
Description: as §7, §8, §9, §10

HCT116(VM)46 cells = assay: Cytotoxicity (XTT, 72 hr) in multidrug resistant HCT116(VM)46 cells; assay type: cell-based; settings: IC50 HCT116(VM)46 / HCT116; 4320 min
Description: All drug exposures were for 72 hr and cytotoxicity was measured by XTT tetrazolium dye assay.

CCRF-CEM cells [9] = assay: Influx of [3H]VP-16 in CCRF-CEM cells; assay type: cell-based, human; settings: Homo sapiens, CCRF-CEM, 0.5 h; 20 μM, 30 min, 37° C.; read-out: increase of VP-16 accumulation
DC-3F hamster lung cells [10] = settings: dc-3f cells
CCRF-CEM cells [11] = system: CCRF-CEM cells
CCRF-CEM/VBL100 cells [12] = settings: ccrf-cem/vbl100 cells
CCRF/VM-1 cells = assay: Intracellular accumulation of VP-16 in CCRF/VM-1 cells; settings: Homo sapiens, 0.5 h, read-out: increase of VP-16 accumulation
CCRF-CEM cells [13] = assay: Accumulation of VP-16 in CCRF-CEM cells preloaded with [3H]VP-16; settings: Homo sapiens, 0.5 h, read-out: increase of intracellular accumulation of VP-16

C=CC(C)(C)C12CC3c4nc5ccccc5c(=O)n4CC(=O)N3C1N(C(C)=O)c1ccccc12 (stereo not shown) [5-N-Ac-8-desmethyl-Ardeemin, N-Acetyl-8-desmethyl-ardeemin] was tested, and the IC50 (DC-3F/ADX cells; DC3F/ADX, DC-3F/ADX) was 3.98 µM, the “(C)/(A)” value (DC-3F/ADX cells; IC50 ratio DC-3F/ADX to DC-3F, * collaterally sensitive) was 0.14 X and the IC50 (CCRF-CEM/VM-1 cells; Homo sapiens, CCRF-CEM, Table 6B, CCRF-CEM/VM-1, read-out: IC50 of reversing agent) was 35.8 µM. For the same compound, the “[3H]vinblastine accumulation” value (CCRF-CEM cells [1]; washed) was 29.33 fmole/10^3 cells, the “[3H]vinblastine accumulation” value (CCRF-CEM cells [1]; without wash) was 33.13 fmole/10^3 cells and the “[3H]vinblastine accumulation” value (CCRF-CEM/VLB-100 cells; washed) was 7.66 fmole/10^3 cells. The “[3H]vinblastine accumulation” value (CCRF-CEM/VLB-100 cells; without wash) was 33.53 fmole/10^3 cells, the “(B)/(A)” value (DC-3F/ADII cells [2]; IC50 ratio DC-3F/ADII to DC-3F, * collaterally sensitive) was 0.50 X and the “% ILS” value (P388/0 tumor [3]) was “+1%”. It also gave an MST (P388/0 tumor [3]) of 8.40 days, an IC50 (DC-3F/ADII cells [4]; read-out: IC50 (B)) of 14.6 µM and an IC50 (CCRF-CEM/VBL100 cells [5]) of 32.9 µM. The IC50 (DC-3F hamster lung cells [6]; Mesocricetus auratus, DC3F, read-out: IC50 (A), mean ± spread, mean of the determinations) was 29.3 ± 8.38 µM, the IC50 (DC-3F hamster lung cells [6]; Mesocricetus auratus, DC3F, read-out: IC50 (A), single determinations) was 37.7 µM and the IC50 (DC-3F hamster lung cells [6]; read-out: IC50 (A), single determinations) was 20.9 µM. It also gave an IC50 (CCRF-CEM cells [7]; read-out: IC50 of reversing agent, Table 6B, CCRF-CEM) of 22.7 µM.

COc1cccc2c1C(=O)c1c(O)c3c(c(O)c1C2=O)C[C@@](O)(C(=O)CO)C[C@@H]3O[C@H]1C[C@H](N)[C@H](O)[C@H](C)O1 [Adriamycin, adriamycin] gave an IC50 (P388/DX leukemic cells) of 2.14 µM, an IC50 (DC-3F/ADII cells [4]; read-out: IC50 for inhibiting cell growth, Table 7, DC-3F/SDII) of 0.38 µM and an IC50 (DC-3F hamster lung cells [6]; Mesocricetus auratus, DC3F, read-out: IC50 for inhibiting cell growth, Table 7, DC-3F) of 0.03 µM. For the same compound, the “% ILS” value (P388/0; adriamycin 0.333 mg/kg) was 85%, the MST (P388/0; adriamycin 0.333 mg/kg) was 13.75 and the survival time (P388/0; adriamycin 0.333 mg/kg) was 12.25 and 13.0 and 14.25 and 15.5. For the same compound, the “% ILS” value (P388/0; adriamycin 1.0 mg/kg) was 129%, the MST (P388/0; adriamycin 1.0 mg/kg) was 17.0 and the survival time (P388/0; adriamycin 1.0 mg/kg) was 14.25 and 15.5 and 18.0 and 20.25. The “% ILS” value (P388/0; adriamycin 3.0 mg/kg) was 145%, the MST (P388/0; adriamycin 3.0 mg/kg) was 18.19 and the survival time (P388/0; adriamycin 3.0 mg/kg) was 16.0 and 17.25 and 19.25 and 20.25. For the same compound, the “% ILS” value (P388/DX; adriamycin 0.333 mg/kg) was 24%, the MST (P388/DX; adriamycin 0.333 mg/kg) was 9.0 and the survival time (P388/DX; adriamycin 0.333 mg/kg) was 8.0 and 8.5 and 9.5 and 10.0. For the same compound, the “% ILS” value (P388/DX; adriamycin 1.0 mg/kg) was 37%, the MST (P388/DX; adriamycin 1.0 mg/kg) was 9.75 and the survival time (P388/DX; adriamycin 1.0 mg/kg) was 9.0 and 10.0 and 10.25 and 10.5. The “% ILS” value (P388/DX; adriamycin 3.0 mg/kg) was 48%, the MST (P388/DX; adriamycin 3.0 mg/kg) was 10.75 and the survival time (P388/DX; adriamycin 3.0 mg/kg) was 10.0 and 11.5 and 12.25. The IC50 (P388 leukemic cells) was 0.228 µM, the “% ILS” value (P388/O tumor; Adr 0.5 mg/kg) was “+128%” and the MST (P388/O tumor; Adr 0.5 mg/kg) was 17.3 days. For the same compound, the Days survived (P388/O tumor; Adr 0.5 mg/kg) was 15.5 days and 16.0 days and 17.0 days and 18.0 days and 20.0 days, the “% ILS” value (P388/O tumor; Adr 1.0 mg/kg) was “+152%” and the MST (P388/O tumor; Adr 1.0 mg/kg) was 19.1 days. The Days survived (P388/O tumor; Adr 1.0 mg/kg) was 16.0 days and 19.0 days and 20.5 days and 21.0 days, the “% ILS” value (P388/O tumor; Adr 2.0 mg/kg) was “+178%” and the MST (P388/O tumor; Adr 2.0 mg/kg) was 21.1 days. The Days survived (P388/O tumor; Adr 2.0 mg/kg) was 19.0 days and 20.5 days and 21.0 days and 22.5 days, the “% ILS” value (P388/O tumor; Adr 3.0 mg/kg) was “+181%” and the MST (P388/O tumor; Adr 3.0 mg/kg) was 19.8 days. The deaths of toxicity (P388/O tumor; Adr 3.0 mg/kg, day 12.5 and 15) was “Two mice died of toxicity of drugs”, the Days survived (P388/O tumor; Adr 3.0 mg/kg) was 12.5 days and 16.0 days and 20.5 days and 24.6 days and 26.5 days and the “% ILS” value (P388/DX tumor; Adr. 0.5 mg/kg) was “+49%”. The MST (P388/DX tumor; Adr. 0.5 mg/kg) was 11.3 days, the Days survived (P388/DX tumor; Adr. 0.5 mg/kg) was 7.5 days and 10.5 days and 12.25 days and 14.0 days and the “% ILS” value (P388/DX tumor; Adr. 1.0 mg/kg) was “+75%”. For the same compound, the MST (P388/DX tumor; Adr. 1.0 mg/kg) was 13.25 days, the Days survived (P388/DX tumor; Adr. 1.0 mg/kg) was 11.5 days and 12.25 days and 13.25 days and 16.0 days and the MST (P388/DX tumor; Adr. 2.0 mg/kg) was 15.55 days. For the same compound, the Days survived (P388/DX tumor; Adr. 2.0 mg/kg) was 14.0 days and 15.0 days and 15.25 days and 16.5 days and 17.0 days, the “% ILS” value (P388/DX tumor; Adr. 3.0 mg/kg) was “+130%” and the MST (P388/DX tumor; Adr. 3.0 mg/kg) was 17.4 days. For the same compound, the deaths of toxicity (P388/DX tumor; Adr. 3.0 mg/kg, day 14) was “Two mice died of toxicity of drugs”, the Days survived (P388/DX tumor; Adr. 3.0 mg/kg) was 14.0 days and 17.5 days and 21.0 days and the “% ILS” value (P388/0 tumor [8]; Adr. 3.0 mg/kg) was “+63%”. The MST (P388/0 tumor [8]; Adr. 3.0 mg/kg) was 13.60 days, the Days survived (P388/0 tumor [8]; Adr. 3.0 mg/kg) was 10.5 days and 13.5 days and 14.5 days and 15.0 days and the “% ILS” value (P388/0 tumor [8]; Adr. 5.0 mg/kg) was “+81%”. The MST (P388/0 tumor [8]; Adr. 5.0 mg/kg) was 15.10 days and the Days survived (P388/0 tumor [8]; Adr. 5.0 mg/kg) was 10.5 days and 14.0 days and 16.0 days and 17.0 days and 18.0 days.

Compound CC(=O)O[C@H]1C(=O)[C@@]2(C)[C@H]([C@H](OC(=O)c3ccccc3)[C@]3(O)C[C@H](OC(=O)[C@H](O)[C@@H](NC(=O)c4ccccc4)c4ccccc4)C(C)=C1C3(C)C)[C@]1(OC(C)=O)CO[C@@H]1C[C@@H]2O [paclitaxel] has a R/S ratio (HCT116(VM)46 cells) of 132.

With C=CC(C)(C)C12CC3c4nc5ccccc5c(=O)n4C(C)C(=O)N3C1Nc1ccccc12 (stereo not shown) [Ardeemin] the IC90 (CCRF-CEM/VM-1 cells; ccrf-cem/vm-1 cells) was 88.8 µM, the activation at 20 µM (CCRF-CEM cells [9]) was 33% and the “[3H]vinblastine accumulation” value (CCRF-CEM cells [1]; washed) was 29.94 fmole/10^3 cells. The “[3H]vinblastine accumulation” value (CCRF-CEM cells [1]; without wash) was 34.68 fmole/10^3 cells, the “[3H]vinblastine accumulation” value (CCRF-CEM/VLB-100 cells; washed) was 5.42 fmole/10^3 cells and the “[3H]vinblastine accumulation” value (CCRF-CEM/VLB-100 cells; without wash) was 22.84 fmole/10^3 cells. For the same compound, the IC80 (DC-3F hamster lung cells [10]) was 10.2 µM, the IC90 (DC-3F hamster lung cells [10]) was 30.9 µM and the IC90 (DC-3F/ADII cells [2]; dc-3f/adii cells) was 24.6 µM. It also gave an IC90 (CCRF-CEM cells [11]) of 65.7 µM, an IC90 (CCRF-CEM/VBL100 cells [12]) of 27.9 µM and an IC50 (DC-3F hamster lung cells [6]; Mesocricetus auratus, DC3F, relative cytotoxicity, DC-3F) of 10.2 µM. It also gave a fold induction at 20 µM (CCRF/VM-1 cells) of 1.51, an IC50 (CCRF-CEM cells [7]; human leukemic CCRF-CEM cells) of 20.8 µM and a fold induction at 20 µM (CCRF-CEM cells [13]) of 3.1.
